Results as given in patent US20030229132A1, “Small molecule modulators of apoptosis” (priority 2002, published 2003).

Key:
Jurkat cells = test: Cell viability by MTT test, Jurkat; type: cell-based, human
Experimental: (§1) Samples were then probed by immunoblot for (A) caspase-3 activation or (B) cleavage of PARP. (C) DNA fragmentation analysis. […] The DNA was isolated by phenol/chloroform extraction, separated on a 2% agarose gel and visualized by ethidium bromide staining. Cell viability assay.
One of the hallmarks of apoptosis is the fragmentation of chromosomal DNA into discrete, nucleosomal sized bands. […] We then examined the effects of the compounds on cell viability. Jurkat cells were incubated at different concentrations of compounds for 22 hr and then assayed by MTT test.
(§2) Normal cell lines include peripheral blood lymphocytes (PBL) isolated from donated human blood, non-transformed mammary fibroblasts (MCF-10A), human mammary epithelial cells (HMEC), human umbilical vein endothelial cells (HUVEC), and human prostate epithelial cells (PREC). Transformed cell lines include cell lines from leukemia, breast, lung, ovarian, and epidermal cancers (Table 1).

MCF 10A cells = test: Cell viability, MCF 10A; type: cell-based, human
Excerpt: as §2

[1] = test system: human mammary epithelial cells (HMEC); test: Cell viability, HMEC; type: cell-based
[2] = test system: human umbilical vein endothelial cells (HUVEC); test: Cell viability, HUVEC; type: cell-based; settings: normal cell
Excerpt: as §2

[3] = test system: human prostate epithelial cells (PREC); test: Cell viability, PREC; type: cell-based
Excerpt: as §2

Molt-4 = test: Cell viability, Molt-4; type: cell-based, human; settings: Molt-4, leukemia
Excerpt: as §1, §2

CCRF-CEM = test: Cell viability, CCRF-CEM; type: cell-based, human; settings: leukemia
Excerpt: as §1, §2

BT-549 = test: Cell viability, BT-549; type: cell-based, human; settings: BT-549, breast
Excerpt: as §2

MDA-MB-453 = test: Cell viability, MDA-MB-453; type: cell-based; settings: MDA-MB-453, breast
Excerpt: as §2

MDA-MB-468 = test: Cell viability, MDA-MB-468; type: cell-based; settings: MDA-MB-468, breast
Excerpt: as §2

MCF-7 = test: Cell viability, MCF-7; type: cell-based
Excerpt: as §2

NCI-H23 = test: Cell viability, NCI-H23; type: cell-based, human; settings: NCI-H23, lung
SK-OV-3 = test: Cell viability, SK-OV-3; type: cell-based
Excerpt: as §2

A431 = test: Cell viability, A431; type: cell-based; settings: A431, epidermal
Excerpt: as §2

[4] = test system: cell lines from the NCI cancer panel; test: NCI cancer panel, cell growth by sulforhodamine B staining; type: cell-based
Experimental: Cells were exposed to serial dilutions of compound 2 continuously for 6 days, and cell growth relative to controls was determined by staining with sulforhodamine B. Some cell lines were excluded for clarity. (A) Dose-response plots for leukemia, melanoma, renal cancer and CNS cancer. (B) Dose-response plots for lung, breast and colon cancers.
Compounds 2-5 additionally were submitted to the National Cancer Institute for screening in the cancer panel. […] Compound 2 exerted a cytostatic effect on the majority of cell lines tested, inhibiting cell growth by 50-100% at 10 μM in 40 out of 48 cell lines tested. In addition, compound 2 exerted a cytotoxic effect, reducing the cell numbers by 10-50% in four cell lines and by 50-100% in eight cell lines from the initial levels when tested at 10 μM. […] Representative dose-response plots for lung, breast and colon cancer cell lines are also shown (FIG. 4B). Results for ovarian and prostate cancer were similar.

[5] = test system: Jurkat cells transfected with Apaf-1 siRNA; test: Viability of Jurkat cells transfected with Apaf-1 siRNA (MTT test); type: cell-based, human; settings: 20 nM Apaf-1 siRNA 48 hr, then 24 hr incubation
Experimental: (§3) (A) Jurkat cells were transfected with 20 nM Apaf-1 siRNA for 48 hr and half the cells were lysed and probed with antibodies to Apaf-1, caspase-9, and caspase-3. The other half of the cells was incubated with varying concentrations of (B), compound 2 or (C), Fas ligand for 24 hr and assayed for viability by MTT test. (D) SK-OV-3 cells were transiently transfected with Apaf-1 or vector control for 24 hr and then incubated with vary concentrations of compound 2 and assayed for viability. (E) Cyto c was titrated into SK-OV-3 cell lysate in the presence of 300 μM dATP, with or without 150 nM purified Apaf-1 and 20 μM compound 2 as indicated.
In order to verify that compound 2 targets the apoptosome as a function of its cytotoxic activity, small interfering RNA (siRNA) was used to silence the expression of Apaf-1 in Jurkat cells. Sense and anti-sense oligonucleotides corresponding to nucleotides 978-998 of Apaf-1 (([…]) as reported by Lassus et al. Science 297, 1352-4. (2002)), were purchased from Dharmacon. Transfection of siRNA into Jurkat cells was accomplished using GeneSilencer (Gene Therapy Systems) according to manufacturer's instructions. There was a significant decrease in the level of expression of Apaf-1 48 hr after transfection of an Apaf-1 specific siRNA, without affecting the expression of caspases in the pathway (FIG. 5A).

[6] = test system: Apaf-1 transfected SK-OV-3 cells; test: Viability of SK-OV-3 cells transiently transfected with Apaf-1; type: cell-based; settings: several independent experiments
Experimental: as §3
If silencing Apaf-1 in Jurkat cells make them resistant to compound 2 induced apoptosis, then it would be expected that ectopic expression of wildtype Apaf-1 in an Apaf-1 deficient cell line should render cells sensitive to compound 2. As mentioned above, the ovarian cancer cell line SK-OV-3 is deficient in Apaf-1 activity and is resistant to compound 2. Apaf-i was cloned into pcDNA-3 and transiently transfected into SK-OV-3 cells using Fugene (Roche) according to the manufacturer's instructions. Transient transfection of Apaf-1 into SK-OV-3 cells rendered them sensitive to compound 2 cytotoxicity as compared to the vector control (FIG. 5D). […]

In the case of `O=C1C(=O)N(Cc2ccc(Cl)c(Cl)c2)c2ccccc21` [Compound 2], the EC50 (Jurkat cells; Jurkat, 22 hr, MTT test, read-out: EC50 cell killing) is reported as about 5 µM, the IC50 (Jurkat cells; Jurkhat, leukemia, p53 +) is reported as 4 µM and the effect on cells (MCF 10A cells; MCF 10A cells, up to 50 μM) is reported as “no effect except at the highest concentration”. The IC50 (MCF 10A cells; MCF 10A, normal cell) was over 50 µM, the effect on cells ([1]; HMEC cells, up to 50 μM) was “no effect except at the highest concentration” and the IC50 ([1]; HMEC, normal cell) was over 50 µM. For the same compound, the IC50 [2] was 43 µM, the effect on cells ([3]; PREC cells, up to 50 μM) was “no effect except at the highest concentration” and the IC50 ([3]; PREC, normal cell) was over 50 µM. The IC50 (Molt-4) was 6 µM, the IC50 (CCRF-CEM) was 9 µM and the IC50 (BT-549) was 20 µM. The IC50 (MDA-MB-453) was over 50 µM, the IC50 (MDA-MB-468) was 44 µM and the IC50 (MCF-7; MCF-7, breast, caspase-3 deficient) was over 50 µM. The effect on cells (MCF-7; MCF-7, deficient in caspase-3 activity) was “no effect”, the IC50 (NCI-H23) was 35 µM and the effect on cells (SK-OV-3; SK-OV-3, deficient in Apaf-1 activity) was “no effect”. The IC50 (SK-OV-3; SK-OV-3, ovarian, Apaf-1 deficient) was over 50 µM, the IC50 (A431) was 40 µM and the “inhibition of cell growth (cytostatic effect)” value ([4]; 10 μM, in 40 out of 48 cell lines tested, 6 days) was 50-100%. The “reduction of cell numbers from the initial levels (cytotoxic effect)” value ([4]; 10 μM, in eight cell lines) was 50-100%, the “reduction of cell numbers from the initial levels (cytotoxic effect)” value ([4]; 10 μM, in four cell lines) was 10-50% and the cytotoxicity ([4]; 100 μM, virtually all cell lines) was 100%. The “sensitivity relative to the mean response of the panel” value ([4]; CCRF-CEM, MOLT-4, LOX IMVI, SN 12C, SF-295) was 5-10 fold, the “overall activity in the cancer panel” value ([4]; among compounds 2-5) was “most active overall” and the “cell killing after silencing of Apaf-1” value [5] was “resistance”. The “viability of cells exposed to compound (plateau)” value [6] was 40-50%.
